{"source": "ChEMBL document CHEMBL1177694", "about": "“Multivalent catanionic GalCer analogs derived from first generation dendrimeric phosphonic acids” (Bioorg Med Chem, 2010)", "key": {"[1]": {"system": "Human immunodeficiency virus 1", "experiment": "Antiviral activity against HIV1 LAI infected in human CEM-SS cells assessed as inhibition of viral replication after 5 days by MTT assay", "format": "functional, organism-based", "conditions": "Human immunodeficiency virus 1, LAI, 120 h"}, "[2]": {"experiment": "Cytotoxicity against human CEM-SS cells after 5 days by MTT assay", "format": "cell-based"}, "[3]": {"experiment": "Therapeutic index, ratio of CC50 for human CEM-SS cells to IC50 for HIV1 LAI infected in human CEM-SS cells", "format": "cell-based", "conditions": "CEM-SS cells (uninfected and infected with HIV1 LAI), read-out: Ratio CC50/IC50"}}}
{"smiles": "CCCCCCCCCCCCCCCCNOC(CO)C(O)C(OC1OC(CO)C(O)C(O)C1O)C(O)CO.CCCCCCCCCCCCCCCCNOC(CO)C(O)C(OC1OC(CO)C(O)C(O)C1O)C(O)CO.CCCCCCCCCCCCCCCCNOC(CO)C(O)C(OC1OC(CO)C(O)C(O)C1O)C(O)CO.CCCCCCCCCCCCCCCCNOC(CO)C(O)C(OC1OC(CO)C(O)C(O)C1O)C(O)CO.CCCCCCCCCCCCCCCCNOC(CO)C(O)C(OC1OC(CO)C(O)C(O)C1O)C(O)CO.CCCCCCCCCCCCCCCCNOC(CO)C(O)C(OC1OC(CO)C(O)C(O)C1O)C(O)CO.CN(/N=C/c1ccc(OP2(Oc3ccc(/C=N/N(C)P(=S)(Oc4ccc(/C=C/P(=O)(O)O)cc4)Oc4ccc(/C=C/P(=O)(O)O)cc4)cc3)=NP(Oc3ccc(/C=N/N(C)P(=S)(Oc4ccc(/C=C/P(=O)(O)O)cc4)Oc4ccc(/C=C/P(=O)(O)O)cc4)cc3)(Oc3ccc(/C=N/N(C)P(=S)(Oc4ccc(/C=C/P(=O)(O)O)cc4)Oc4ccc(/C=C/P(=O)(O)O)cc4)cc3)=NP(Oc3ccc(/C=N/N(C)P(=S)(Oc4ccc(/C=C/P(=O)(O)O)cc4)Oc4ccc(/C=C/P(=O)(O)O)cc4)cc3)(Oc3ccc(/C=N/N(C)P(=S)(Oc4ccc(/C=C/P(=O)(O)O)cc4)Oc4ccc(/C=C/P(=O)(O)O)cc4)cc3)=N2)cc1)P(=S)(Oc1ccc(/C=C\\P(=O)(O)O)cc1)Oc1ccc(/C=C/P(=O)(O)O)cc1", "note": "(stereo unspecified)", "values": [{"measurement": "IC50", "setting": "[1]", "result": 250, "unit": "nM"}, {"measurement": "CC50 at 120 h", "setting": "[2]", "result": 1600, "unit": "nM"}, {"measurement": "selectivity ratio", "setting": "[3]", "result": 6.4}]}
{"smiles": "CCCCCCCCCCCCCCCCNOC(CO)C(O)C(OC1OC(CO)C(O)C(O)C1O)C(O)CO.CCCCCCCCCCCCCCCCNOC(CO)C(O)C(OC1OC(CO)C(O)C(O)C1O)C(O)CO.CCCCCCCCCCCCCCCCNOC(CO)C(O)C(OC1OC(CO)C(O)C(O)C1O)C(O)CO.CCCCCCCCCCCCCCCCNOC(CO)C(O)C(OC1OC(CO)C(O)C(O)C1O)C(O)CO.CCCCCCCCCCCCCCCCNOC(CO)C(O)C(OC1OC(CO)C(O)C(O)C1O)C(O)CO.CCCCCCCCCCCCCCCCNOC(CO)C(O)C(OC1OC(CO)C(O)C(O)C1O)C(O)CO.CN(/N=C/c1ccc(OP2(Oc3ccc(/C=N/N(C)P(=S)(Oc4ccc(C(O)P(=O)(O)O)cc4)Oc4ccc(C(O)P(=O)(O)O)cc4)cc3)=NP(Oc3ccc(/C=N/N(C)P(=S)(Oc4ccc(C(O)P(=O)(O)O)cc4)Oc4ccc(C(O)P(=O)(O)O)cc4)cc3)(Oc3ccc(/C=N/N(C)P(=S)(Oc4ccc(C(O)P(=O)(O)O)cc4)Oc4ccc(C(O)P(=O)(O)O)cc4)cc3)=NP(Oc3ccc(/C=N/N(C)P(=S)(Oc4ccc(C(O)P(=O)(O)O)cc4)Oc4ccc(C(O)P(=O)(O)O)cc4)cc3)(Oc3ccc(/C=N/N(C)P(=S)(Oc4ccc(C(O)P(=O)(O)O)cc4)Oc4ccc(C(O)P(=O)(O)O)cc4)cc3)=N2)cc1)P(=S)(Oc1ccc(C(O)P(=O)(O)O)cc1)Oc1ccc(C(O)P(=O)(O)O)cc1", "note": "(stereo unspecified)", "values": [{"measurement": "IC50", "setting": "[1]", "result": 210, "unit": "nM"}, {"measurement": "CC50 at 120 h", "setting": "[2]", "result": 1200, "unit": "nM"}, {"measurement": "selectivity ratio", "setting": "[3]", "result": 4}]}
